Consider 12 compounds from patent US20090227600A1, “4-(PYRAZINE-2-YL) -PYRROLIDINE -2-CARBOXYLIC ACID COMPOUNDS AND DERIVATIVES THEREOF AS HEPATITIS C VIRUS INHIBITORS” (priority 2004, published 2009).

Experiment [1] addresses T1, HCV RNA Polymerase, recombinant NS5B with C-terminal 21 amino acid deletion, genotype 1a strain H77 (Hepatitis C virus genotype 1a, UniProt P27958).
T1 construct: fused on or other part: C-terminal 6His-tag
Description: In vitro HCV RNA-dependent RNA polymerase inhibition assay, genotype 1a C-terminally truncated (delta21) enzyme. It is filed as biochemical, HCV genotype 1a. The following applies: genotype 1a delta21 NS5B enzyme; read-out: IC50 in delta-21 1a enzyme inhibition assay. From the text:
(§1) Incorporation of [^33P]-GMP into RNA was followed by absorption of the biotin labelled RNA polymer by streptavidin containing SPA beads. A synthetic template consisting of biotinylated 13mer-oligoG hybridised to polyrC was used as a homopolymer substrate.
a) Genotype 1a C-Terminally Truncated (delta21) Enzyme
HCV RNA Polymerase [Recombinant NS5B with C-terminal 21 amino acid deletion and C-terminal 6His-tag (Ferrari et al. J. Virol, 73(2), 1999, 1649. ‘Characterization of soluble hepatitis C virus RNA-dependent RNA polymerase expressed in Escherichia coli.’) expressed in E. coli and purified to homogeneity] was added to 25 nM final concentration. Polymerase of genotype 1a was from strain H77 (Yanagi, M., Purcell, R. H., Emerson, S. U. & Bukh, J. (1997), Proceedings of the National Academy of Sciences, USA 94, 8738-8743) containing a sequence change from valine to isoleucine at position 180.
Reaction Conditions were 25 nM enzyme, 1.5 μg/ml oligo-rG13/poly-rC and 0.2 μCi α-^33P-GTP in 0.5 μM GTP (20 Ci/mMol), 20 mM Tris pH 7.5, 23 mM NaCl, 3 mM DTT, 5 mM MgCl2, 1 mM MnCl2.
Enzyme was diluted to 500 nM concentration in 20 mM Tris-HCl, pH 7.5, 25 mM NaCl and 3 mM DTT.
4× concentrated assay buffer mix was prepared using 1M Tris-HCl, pH7.5 (1 mL), 5M NaCl (0.25 mL), 1M DTT (0.12 mL) and Water (8.63 mL), Total 10 mL.
2× concentrated first reagent was prepared using 4× concentrated assay buffer mix (5 μL), 40 u/μL RNasin (0.1 μL), 20 μg/mL polyrC/biotinylated-oligoG (1.6 μL), 500 nM enzyme (1 μL) and Water (2.3 μL), Total 10 μl/well.
2× concentrated second reagent was prepared using 1M MgCl2 (0.1 μL), 1M MnCl2 (0.02 μL), 25 μM GTP (0.4 μL), α-[^33P]-GTP (10 μCi/μL, 0.02 μL) and water (9.5 μL), Total 10 μL/well.
The assay was set up using compound (1 μL in 100% DMSO), first reagent (10 μL), and second reagent (10 μL), Total 21 μL.
The reaction was performed in a U-bottomed, white, 96-well plate. The reaction was mixed on a plate-shaker, after addition of the Enzyme, and incubated for 1 h at 22° C. After this time, the reaction was stopped by addition of 60 μL 1.5 mg/ml streptavidin SPA beads (Amersham) in 0.1 M EDTA in PBS. The beads were incubated with the reaction mixture for 1 h at 22° C. after which 100 μL 0.1 M EDTA in PBS was added. The plate was sealed, mixed centrifuged and incorporated radioactivity determined by counting in a Trilux (Wallac) or Topcount (Packard) Scintillation Counter.
After subtraction of background levels without enzyme, any reduction in the amount of radioactivity incorporated in the presence of a compound, compared to that in the absence, was taken as a measure of the level of inhibition. Ten concentrations of compounds were tested in three- or fivefold dilutions. From the counts per minute, percentage of inhibition at highest concentration tested or IC50s for the compounds were calculated using GraFit 3, GraFit 4 or GraFit 5 (Erithacus Software Ltd.) software packages or a data evaluation macro for Excel based on XLFit Software (IDBS).

Experiment [2] addresses T2, HCV RNA Polymerase, recombinant full-length NS5B, genotype 1b (Hepatitis C virus genotype 1b, UniProt Q9WMX2).
T2 construct: Recombinant full-length NS5B; made in house
Description: In vitro HCV RNA-dependent RNA polymerase inhibition assay, genotype 1b full-length enzyme. The class given is biochemical, HCV genotype 1b. Particulars: genotype 1b full-length NS5B enzyme. The procedure:
as §1
b) Genotype 1b Full-Length Enzyme
Reaction Conditions were 0.5 μM [^33P]-GTP (20 Ci/mMol), 1 mM Dithiothreitol, 20 mM MgCl2, 5 mM MnCl2, 20 mM Tris-HCl, pH7.5, 1.6 μg/mL polyC/0.256 μM biotinylated oligoG13, 10% glycerol, 0.01% NP-40, 0.2 u/μL RNasin and 50 mM NaCl.
HCV RNA Polymerase (Recombinant full-length NS5B (Lohmann et al, J. Virol. 71 (11), 1997, 8416. ‘Biochemical properties of hepatitis C virus NS5B RNA-dependent RNA polymerase and identification of amino acid sequence motifs essential for enzymatic activity’) expressed in baculovirus and purified to homogeneity) was added to 4 nM final concentration.
5× concentrated assay buffer mix was prepared using 1M MnCl2 (0.25 mL), glycerol (2.5 mL), 10% NP-40 (0.025 mL) and Water (7.225 mL), Total 10 mL.
2× concentrated enzyme buffer contained 1M-Tris-HCl, pH7.5 (0.4 mL), 5M NaCl (0.2 mL), 1M-MgCl2 (0.4 mL), glycerol (1 mL), 10% NP-40 (10 μL), 1M DTT (20 μL) and water (7.97 mL), Total 10 mL.
Substrate Mix was prepared using 5× Concentrated assay Buffer mix (4 μL), [^33P]-GTP (10 μCi/μL, 0.02 μL), 25 μM GTP (0.4 μL), 40 u/μL RNasin (0.1 μL), 20 μg/mL polyrC/biotinylated-oligoG (1.6 μL), and Water (3.94 μL), Total 10 μL.
Enzyme Mix was prepared by adding 1 mg/ml full-length NS5B polymerase (1.5 μL) to 2.81 mL 2×-concentrated enzyme buffer.
The Assay was set up using compound (1 μL), Substrate Mix (10 μL), and Enzyme Mix (added last to start reaction) (10 μL), Total 21 μL.
The reaction was performed in a U-bottomed, white, 96-well plate. The reaction was mixed on a plate-shaker, after addition of the Enzyme, and incubated for 1 h at 22° C. After this time, the reaction was stopped by addition of 40 μL 1.875 mg/ml streptavidin SPA beads in 0.1 M EDTA. The beads were incubated with the reaction mixture for 1 h at 22° C. after which 120 μL 0.1 M EDTA in PBS was added. The plate was sealed, mixed centrifuged and incorporated radioactivity determined by counting in a Trilux (Wallac) or Topcount (Packard) Scintillation Counter.
After subtraction of background levels without enzyme, any reduction in the amount of radioactivity incorporated in the presence of a compound, compared to that in the absence, was taken as a measure of the level of inhibition. Ten concentrations of compounds were tested in three- or fivefold dilutions. From the counts, percentage of inhibition at highest concentration tested or IC50s for the compounds were calculated using GraFit 3, GraFit 4 or GraFit 5 (Erithacus Software Ltd.) software packages or a data evaluation macro for Excel based on XLFit Software (IDBS).

T2 sequence (Q9WMX2 2420-3010): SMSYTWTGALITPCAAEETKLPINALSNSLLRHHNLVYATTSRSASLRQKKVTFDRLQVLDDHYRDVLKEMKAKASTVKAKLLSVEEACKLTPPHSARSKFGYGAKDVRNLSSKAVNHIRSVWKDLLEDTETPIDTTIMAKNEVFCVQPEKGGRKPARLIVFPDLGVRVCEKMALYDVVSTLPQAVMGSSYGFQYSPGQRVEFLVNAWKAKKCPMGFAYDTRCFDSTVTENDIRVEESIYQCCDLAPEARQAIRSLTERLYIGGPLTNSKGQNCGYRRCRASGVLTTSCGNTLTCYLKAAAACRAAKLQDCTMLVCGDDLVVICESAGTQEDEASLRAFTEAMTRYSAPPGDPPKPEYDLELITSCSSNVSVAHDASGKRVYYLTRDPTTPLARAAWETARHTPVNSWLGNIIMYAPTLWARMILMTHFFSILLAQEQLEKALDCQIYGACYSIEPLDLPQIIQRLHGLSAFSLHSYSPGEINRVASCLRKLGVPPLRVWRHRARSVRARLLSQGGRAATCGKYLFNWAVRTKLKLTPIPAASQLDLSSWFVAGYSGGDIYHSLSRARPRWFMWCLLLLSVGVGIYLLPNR
T1 sequence (P27958 2421-3011 V2599I, form open): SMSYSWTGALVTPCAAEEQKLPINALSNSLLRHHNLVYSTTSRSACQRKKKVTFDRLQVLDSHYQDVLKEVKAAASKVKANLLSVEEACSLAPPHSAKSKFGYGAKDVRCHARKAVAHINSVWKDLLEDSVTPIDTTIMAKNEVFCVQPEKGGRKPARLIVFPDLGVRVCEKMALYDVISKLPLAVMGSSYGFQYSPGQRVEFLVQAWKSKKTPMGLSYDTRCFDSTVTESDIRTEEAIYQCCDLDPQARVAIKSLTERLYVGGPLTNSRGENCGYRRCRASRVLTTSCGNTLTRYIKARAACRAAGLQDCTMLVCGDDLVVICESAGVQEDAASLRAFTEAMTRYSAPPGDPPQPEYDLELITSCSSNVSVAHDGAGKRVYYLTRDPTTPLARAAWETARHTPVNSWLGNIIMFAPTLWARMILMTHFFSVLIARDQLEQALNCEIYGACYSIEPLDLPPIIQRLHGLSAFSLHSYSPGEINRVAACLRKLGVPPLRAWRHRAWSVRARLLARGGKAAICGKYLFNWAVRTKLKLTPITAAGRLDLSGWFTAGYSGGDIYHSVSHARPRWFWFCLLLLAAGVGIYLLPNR

Regarding `COc1cc(C(=O)N2[C@@H](c3nccs3)[C@@H](c3cnccn3)C[C@@]2(Cn2cccn2)C(=O)O)ccc1C(C)(C)C` (racemic) [Example 11, rel-(2R,4S,5R)-1-(3-Methoxy-4-tert-butylbenzoyl)-4-(pyrazin-2-yl)-2-(1H-pyrazol-1-ylmethyl)-5-(1,3-thiazol-2-yl)pyrrolidine-2-carboxylic acid], the IC50 in experiment [1] is below 150 nM; in experiment [2], below 100 nM.

Regarding `COc1cc(C(=O)N2[C@@H](c3ncc(C)s3)[C@@H](c3cnccn3)C[C@@]2(Cc2nccs2)C(=O)O)ccc1C(C)(C)C` (racemic) [Example 13, rel-(2R,4S,5R)-1-(3-Methoxy-4-tert-butylbenzoyl)-5-(5-methyl-1,3-thiazol-2-yl)-4-(pyrazin-2-yl)-2-(1,3-thiazol-2-ylmethyl)pyrrolidine-2-carboxylic acid], the figures for the IC50 in experiment [1] and in experiment [2] were below 150 nM and below 100 nM, respectively.

As for `COc1cc(C(=O)N2[C@@H](c3ncc(C)s3)[C@@H](c3cnccn3)C[C@@]2(Cc2cscn2)C(=O)O)ccc1C(C)(C)C` (racemic) [Example 15, rel-(2R,4S,5R)-1-(3-Methoxy-4-tert-butylbenzoyl)-5-(5-methyl-1,3-thiazol-2-yl)-4-(pyrazin-2-yl)-2-(1,3-thiazol-4-ylmethyl)pyrrolidine-2-carboxylic acid], the figures for the IC50 in experiment [1] and in experiment [2] were below 150 nM and below 100 nM, respectively.

For `COc1cc(C(=O)N2[C@@H](c3nccs3)[C@@H](c3cnccn3)C[C@@]2(CC(C)C)C(=O)O)ccc1C(C)(C)C` (single isomer, unassigned; enantiomer a) [Compound B, reference compound], the IC50 is above 1000 nM in experiment [1] and above 500 nM in experiment [2].

Regarding `COc1cc(C(=O)N2[C@@H](c3nccs3)[C@@H](c3cnccn3)C[C@@]2(Cc2cscn2)C(=O)O)ccc1C(C)(C)C` (single isomer, unassigned; enantiomer a) [Example 2], the IC50 in experiment [1] was below 150 nM; in experiment [2], below 100 nM.

Take `COc1cc(C(=O)N2[C@@H](c3nccs3)[C@@H](c3cnccn3)C[C@@]2(Cc2nccs2)C(=O)O)ccc1C(C)(C)C` (single isomer, unassigned; enantiomer a) [Example 4]: the figures for the IC50 in experiment [1] and in experiment [2] were below 150 nM and below 100 nM, respectively.

As to `COc1cc(C(=O)N2[C@@H](c3ncc(C)s3)[C@@H](c3cnccn3)C[C@@]2(Cc2ccsn2)C(=O)O)ccc1C(C)(C)C` (single isomer, unassigned; enantiomer a) [Example 6], the IC50 in experiment [1] was below 150 nM; in experiment [2] it was below 100 nM.

Regarding `COc1cc(C(=O)N2[C@@H](c3nccs3)[C@@H](c3cnccn3)C[C@@]2(Cc2ccsn2)C(=O)O)ccc1C(C)(C)C` (single isomer, unassigned; enantiomer a) [Example 8], the results for the IC50 in experiment [1] and in experiment [2] were below 150 nM and below 100 nM, respectively.

On to `COc1cc(C(=O)N2[C@@H](c3ncc(C)s3)[C@@H](c3cnccn3)C[C@@]2(Cn2cccn2)C(=O)O)ccc1C(C)(C)C` (single isomer, unassigned; enantiomer a) [Example 10], for which the IC50 in experiment [1] was below 150 nM; in experiment [2], below 100 nM.

Regarding `COc1cc(C(=O)N2[C@@H](c3nccs3)[C@@H](c3cnccn3)C[C@@]2(Cn2cccn2)C(=O)O)ccc1C(C)(C)C` (single isomer, unassigned; enantiomer a) [Example 12], the IC50 in experiment [1] was below 150 nM; in experiment [2], below 100 nM.

As for `COc1cc(C(=O)N2[C@@H](c3ncc(C)s3)[C@@H](c3cnccn3)C[C@@]2(Cc2nccs2)C(=O)O)ccc1C(C)(C)C` (single isomer, unassigned; enantiomer a) [Example 14], the IC50 in experiment [1] is below 150 nM; in experiment [2] it was below 100 nM.

Turning to `COc1cc(C(=O)N2[C@@H](c3ncc(C)s3)[C@@H](c3cnccn3)C[C@@]2(Cc2cscn2)C(=O)O)ccc1C(C)(C)C` (single isomer, unassigned; enantiomer a) [Example 16], the IC50 in experiment [1] was below 150 nM; in experiment [2] it was below 100 nM.
